Experiments:
Assay type in all cases: in vivo, Balb/c female mice
goblet cells = test: Ratio of goblet cells to bronchial epithelial cells (PAS staining); details: asthma-induced mice, homoegonol study
Description: (§1) To prepare bronchial asthma-induced experimental animals, six-week-old Balb/c female mice of mean weight about 20 g were used. After one week of adaptation, individuals which had no observed abnormality on a basic physical examination were targeted. 200 μL of phosphate buffered saline (PBS)(pH 7.4) in which 2 mg of aluminum hydroxide (A8222, Sigma, St. Louis, Mo.) and 20 μg of ovalbumin (A5503, Sigma, St. Louis, Mo.) were suspended was injected into the peritoneal cavity at two-week intervals to result in sensitization. On days 28 to 30 after the first intraperitoneal administration of ovalbumin, inhalation challenge was performed for 30 min with 1% ovalbumin using an ultrasonic atomizer. 24 hours after the last antigen administration, airway hyperresponsiveness was measured. After 24 hours, a lethal dose of pentobarbital (Entobar®, Hanlim Pharm Co., Ltd.) was administered, body weight measurement and bronchotomy were performed, and bronchoalveolar lavage was performed with a total 1.2 mL of physiological saline, and then, samples were collected. […] Eight white mice were used for each group. Experimental groups for homoegonol were a group (hE7.5) in which animals were orally administered with 7.5 mg/kg homoegonol 1 hour prior to ovalbumin inhalation, a group (hE15) in which animals were orally administered with 15 mg/kg homoegonol 1 hour prior to ovalbumin inhalation, and a group (hE30) in which animals were orally administered with 30 mg/kg homoegonol 1 hour prior to ovalbumin inhalation, and five white mice were used for each group.
Lungs removed from each individual were subjected to conventional formalin fixation and paraffin embedding, and permanent section slides of 4 μm thickness were prepared, and periodic acid Schiff (PAS) staining was performed to determine goblet cells. Proliferation of goblet cells was assessed by measuring the ratio of goblet cells to bronchial epithelial cells.
In accordance with the method in <Experimental Example 7-2>, the ratio of goblet cells which were determined by periodic acid-Schiff staining to bronchial epithelial cells were measured to assess proliferation of goblet cells.

ovalbumin-specific IgE = test: IgE levels in serum and bronchoalveolar lavage fluid (ELISA); details: asthma-induced mice, homoegonol study; for Total serum IgE level: Table 2
Description: as §1
To measure serum and bronchoalveolar lavage fluid ovalbumin-specific IgE levels caused by administration of styraxlignolide A, an immunoenzyme technique was used. 20 μg/mL of ovalbumin was dissolved in a 0.1 M NAHCO3 buffer (pH 8.3), and was placed into a 96-well flat bottom ELISA plate to be coated at 4° C. overnight. Non-specific binding was blocked with PBS containing 1% bovine serum albumin, and a serum sample was diluted 1:400 and was allowed to react at room temperature for 2 hours. Then, the plate was washed well, and anti-mouse IgE monoclonal antibody was diluted 1:300 and was allowed to react for 2 hours. Then, HRP-conjugated goat anti-rat IgG polyclonal antibody which was coupled to peroxidase was diluted 1:4000 and was allowed to react at room temperature for 1 hour, and then, was washed. For color development, 3,3′,5,5′-tetramethylbezidine substrate was allowed to react, and the spectroscopic absorbance was measured at 650 nm.
To measure IgE levels which are correlated with severity of asthma to examine the effect of homoegonol on asthma, IgE levels in serum and bronchoalveolar lavage fluid were measured according to the method in <Experimental Example 4>.

IL-17 = IL-17 in bronchoalveolar lavage fluid; details: asthma-induced mice, homoegonol study
Description: as §1
To examine the effect of homoegonol on airway remodeling, generation of TGF-β1 and IL-17 in bronchoalveolar lavage fluid was measured.

[1] = tested on: inflammatory cells in the airway mucosa; test: Inflammatory cell infiltration in airway mucosa, inflammatory index (H&E staining); details: asthma-induced mice, homoegonol study, scale 0-4
Description: as §1
Lungs removed from each individual were subjected to conventional formalin fixation and paraffin embedding, and permanent section slides of 4 μm thickness were prepared, and hematoxylin and eosin (H&E) staining was performed. After H&E staining, inflammatory index was measured from random five regions per section slide of each individual to calculate the mean value. Assessments were as follows: inflammatory index 0 is for the case that inflammatory cells are not observed around the bronchus; inflammatory index 1 is for the case that inflammatory cells are intermittently observed; inflammatory index 2 is for the case that thin inflammatory cell layers of one to two or three layers are observed around most of the bronchus; inflammatory index 3 is for the case that inflammatory cell layers of two or three to five or less layers are observed around most of the bronchus; and inflammatory index 4 is for the case that thick inflammatory cell layers of five or more layers are observed around most of the bronchus.
To examine the effect of homoegonol on asthma, lungs of which bronchoalveolar lavage was not performed were removed, and histopathological assessment was performed according to the method in <Experimental Example 7-1>. Since infiltration of inflammatory cells which are comprised of eosinophils, neutrophils, and macrophages are observed in an antigen-aroused bronchus, the present inventors tried to detect inflammatory cell infiltration.

Which results are given for `COc1ccc(-c2cc3cc(CCCO)cc(OC)c3o2)cc1OC` [homoegonol]?
Goblet cells %/bronchial epithelial cell unit (goblet cells; 7.5 mg/kg PO, 7.5 mg/kg): 36.5600±11.5613%; Goblet cells %/bronchial epithelial cell unit (goblet cells; 15 mg/kg PO, 15 mg/kg): 32.4109±10.8037%; Goblet cells %/bronchial epithelial cell unit (goblet cells; 30 mg/kg PO, 30 mg/kg): 25.0956±3.4033%; Total IgE level in bronchoalveolar lavage fluid (ovalbumin-specific IgE; 7.5 mg/kg PO, 7.5 mg/kg): 65.5957 ± 11.6656 ng/mL; serum IgE levels (ovalbumin-specific IgE; 7.5 mg/kg PO): 19.22 ± 4.9287 µg/mL; Total serum IgE level (ovalbumin-specific IgE; 7.5 mg/kg PO): 10.34 ± 6.0548 µg/mL; Total IgE level in bronchoalveolar lavage fluid (ovalbumin-specific IgE; 15 mg/kg PO, 15 mg/kg): 48.4894 ± 4.1926 ng/mL; serum IgE levels (ovalbumin-specific IgE; 15 mg/kg PO): 10.74 ± 3.4612 µg/mL; Total serum IgE level (ovalbumin-specific IgE; 15 mg/kg PO): 9.94 ± 5.0656 µg/mL; Total IgE level in bronchoalveolar lavage fluid (ovalbumin-specific IgE; 30 mg/kg PO, 30 mg/kg): 23.8085 ± 3.3515 ng/mL; serum IgE levels (ovalbumin-specific IgE; 30 mg/kg PO): 8.14 ± 5.9682 µg/mL; Total serum IgE level (ovalbumin-specific IgE; 30 mg/kg PO): 8.62 ± 2.4844 µg/mL; IL-17 concentrations in bronchoalveolar lavage fluid (IL-17; 7.5 mg/kg PO): 70.3409 ± 14.2912 pg/mL; IL-17 concentrations in bronchoalveolar lavage fluid (IL-17; 15 mg/kg PO): 43.5682 ± 2.9102 pg/mL; IL-17 concentrations in bronchoalveolar lavage fluid (IL-17; 30 mg/kg PO): 27.3863 ± 5.7881 pg/mL; Inflammatory index, peribronchiolar ([1]; 7.5 mg/kg PO, 7.5 mg/kg): 1.67±0.1491; Inflammatory index, perivascular ([1]; 7.5 mg/kg PO, 7.5 mg/kg): 1.89±0.1791; Inflammatory index, peribronchiolar ([1]; 15 mg/kg PO, 15 mg/kg): 1.40±0.1549; Inflammatory index, perivascular ([1]; 15 mg/kg PO, 15 mg/kg): 1.70±0.1449; Inflammatory index, peribronchiolar ([1]; 30 mg/kg PO, 30 mg/kg): 1.00±0.2449; Inflammatory index, perivascular ([1]; 30 mg/kg PO, 30 mg/kg): 1.30±0.2025

— patent publication US8980846B2, “Composition containing styraxlignolide A or the aglycone thereof as an active ingredient for preventing or treating asthma” (Korea Research Institute of Bioscience and Biotechnology, priority 2010, dated 2015)
